Source: PubChem BioAssay (NCI)
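Five concentrations, 48 hours, 96-well plates. TGI marks complete inhibition of growth.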

Experiments:
Test in all cases: growth of human tumour cells (NCI), 48 h
MALME-3M melanoma = tested on: MALME-3M melanoma
NCI/ADR-RES ovarian = tested on: NCI/ADR-RES ovarian
HCT-116 colon = tested on: HCT-116 colon
SF-268 CNS = tested on: SF-268 CNS
OVCAR-5 ovarian = tested on: OVCAR-5 ovarian
SK-MEL-5 melanoma = tested on: SK-MEL-5 melanoma
SW-620 colon = tested on: SW-620 colon
OVCAR-8 ovarian = tested on: OVCAR-8 ovarian
K-562 leukemia = tested on: K-562 leukemia
SK-MEL-2 melanoma = tested on: SK-MEL-2 melanoma
M14 melanoma = tested on: M14 melanoma
BT-549 breast = tested on: BT-549 breast
ACHN renal = tested on: ACHN renal
OVCAR-4 ovarian = tested on: OVCAR-4 ovarian
SK-MEL-28 melanoma = tested on: SK-MEL-28 melanoma
HOP-92 NSCLC = tested on: HOP-92 NSCLC
SR leukemia = tested on: SR leukemia
IGROV1 ovarian = tested on: IGROV1 ovarian
UACC-62 melanoma = tested on: UACC-62 melanoma
SF-539 CNS = tested on: SF-539 CNS
KM12 colon = tested on: KM12 colon
NCI-H460 lung = tested on: NCI-H460 lung
HL-60(TB) leukemia = tested on: HL-60(TB) leukemia
OVCAR-3 ovarian = tested on: OVCAR-3 ovarian
NCI-H23 lung = tested on: NCI-H23 lung
TK-10 renal = tested on: TK-10 renal
RPMI-8226 leukemia = tested on: RPMI-8226 leukemia
HT29 colon = tested on: HT29 colon
SNB-19 CNS = tested on: SNB-19 CNS
CCRF-CEM leukemia = tested on: CCRF-CEM leukemia
COLO 205 colon = tested on: COLO 205 colon
MDA-MB-231 breast = tested on: MDA-MB-231 breast
MCF7 breast = tested on: MCF7 breast
SNB-75 CNS = tested on: SNB-75 CNS
HOP-62 NSCLC = tested on: HOP-62 NSCLC
HCC-2998 colon = tested on: HCC-2998 colon
T-47D breast = tested on: T-47D breast
MDA-MB-435 = tested on: MDA-MB-435
UO-31 renal = tested on: UO-31 renal
U251 CNS = tested on: U251 CNS
HCT-15 colon = tested on: HCT-15 colon
LOX IMVI melanoma = tested on: LOX IMVI melanoma
MOLT-4 leukemia = tested on: MOLT-4 leukemia
A498 renal = tested on: A498 renal
786-0 renal = tested on: 786-0 renal
SN12C renal = tested on: SN12C renal
NCI-H522 lung = tested on: NCI-H522 lung
DU-145 prostate = tested on: DU-145 prostate
SF-295 CNS = tested on: SF-295 CNS
CAKI-1 renal = tested on: CAKI-1 renal
PC-3 prostate = tested on: PC-3 prostate
HS 578T breast = tested on: HS 578T breast
NCI-H226 lung = tested on: NCI-H226 lung
UACC-257 melanoma = tested on: UACC-257 melanoma
EKVX NSCLC = tested on: EKVX NSCLC
A549 NSCLC = tested on: A549 NSCLC
RXF 393 renal = tested on: RXF 393 renal

COc1ccc(Nc2nc3cc(C(F)(F)F)ccc3nc2C(=O)O)cc1OC
TGI (MALME-3M melanoma): > 100 µM | TGI (NCI/ADR-RES ovarian): > 100 µM | TGI (HCT-116 colon): 95.7 µM | TGI (SF-268 CNS): > 100 µM | TGI (OVCAR-5 ovarian): > 100 µM | TGI (SK-MEL-5 melanoma): 47.9 µM | TGI (SW-620 colon): > 100 µM | TGI (OVCAR-8 ovarian): > 100 µM | TGI (K-562 leukemia): > 100 µM | TGI (SK-MEL-2 melanoma): 33.2 µM | TGI (M14 melanoma): > 100 µM | TGI (BT-549 breast): > 100 µM | TGI (ACHN renal): > 100 µM | TGI (OVCAR-4 ovarian): > 100 µM | TGI (SK-MEL-28 melanoma): > 100 µM | TGI (HOP-92 NSCLC): 74.9 µM | TGI (SR leukemia): 77 µM | TGI (IGROV1 ovarian): > 100 µM | TGI (UACC-62 melanoma): 53.6 µM | TGI (SF-539 CNS): 62.3 µM | TGI (KM12 colon): 88.4 µM | TGI (NCI-H460 lung): > 100 µM | TGI (HL-60(TB) leukemia): 72.2 µM | TGI (OVCAR-3 ovarian): 93.3 µM | TGI (NCI-H23 lung): 78.9 µM | TGI (TK-10 renal): > 100 µM | TGI (RPMI-8226 leukemia): 92 µM | TGI (HT29 colon): > 100 µM | TGI (SNB-19 CNS): > 100 µM | TGI (CCRF-CEM leukemia): 67.5 µM | TGI (COLO 205 colon): 69.3 µM | TGI (MDA-MB-231 breast): 65.6 µM | TGI (MCF7 breast): 95.3 µM | TGI (SNB-75 CNS): > 100 µM | TGI (HOP-62 NSCLC): > 100 µM | TGI (HCC-2998 colon): > 100 µM | TGI (T-47D breast): > 100 µM | TGI (MDA-MB-435): > 100 µM | TGI (UO-31 renal): > 100 µM | TGI (U251 CNS): > 100 µM | TGI (HCT-15 colon): > 100 µM | TGI (LOX IMVI melanoma): > 100 µM | TGI (MOLT-4 leukemia): 69.5 µM | TGI (A498 renal): > 100 µM | TGI (786-0 renal): > 100 µM | TGI (SN12C renal): 64.2 µM | TGI (NCI-H522 lung): > 100 µM | TGI (DU-145 prostate): > 100 µM | TGI (SF-295 CNS): 45.5 µM | TGI (CAKI-1 renal): 56.3 µM | TGI (PC-3 prostate): > 100 µM | TGI (HS 578T breast): > 100 µM | TGI (NCI-H226 lung): 55.6 µM | TGI (UACC-257 melanoma): > 100 µM | TGI (EKVX NSCLC): > 100 µM | TGI (A549 NSCLC): > 100 µM | TGI (RXF 393 renal): 60.2 µM
